From patent US20240122180A1, “FUNGICIDAL HALOMETHYL KETONES AND HYDRATES AND THEIR MIXTURES” (FMC Corporation, priority 2020, published 2024)

Experiments:
[1] = tested on: Phakopsora pachyrhizi (the causal agent of Asian soybean rust); experiment: Test A: preventive spray on soybean seedlings, visual disease rating (100 = 100% control; * 50 ppm, ** 10 ppm, *** 250 ppm); type: in vivo; settings: 100 = 100% disease control
In short: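 Soybean seedlings sprayed to run-off with compound suspended in acetone/water with 250 ppm PEG400 surfactant, inoculated next day with P. pachyrhizi spores. Kept 24 h saturated at 22 °C, then 8 days at 22 °C before visual rating of disease control (0-100) relative to controls.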

[2] = tested on: Puccinia recondita f. sp. tritici (the causal agent of wheat leaf rust); experiment: Test B: preventive spray on wheat seedlings, disease rating (100 = 100% control; * 50 ppm, ** 10 ppm, *** 250 ppm); type: in vivo; settings: 100 = 100% disease control
In short: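 Wheat seedlings sprayed to run-off with compound in acetone/water (50/50) containing 250 ppm PEG400, inoculated next day with Puccinia recondita f. sp. tritici spores. Held 24 h saturated at 20° C, then 6 days at 20° C; disease control rated 0–100 relative to controls.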

[3] = 50 ppm test suspension, soybean seedlings
[4] = 50 ppm test suspension, wheat seedlings
[5] = 10 ppm test suspension, soybean seedlings
[6] = 10 ppm test suspension, wheat seedlings
[7] = 50 ppm test suspension, 0 = no control
[8] = 10 ppm test suspension, 0 = no control

| SMILES | Test A disease control rating [1, 5] [%] | Test B disease control rating [2, 6] [%] | also measured |
| --- | --- | --- | --- |
| CCOC(=O)c1ccnn1Cc1ccc(OCC(O)(O)C(F)(F)F)cc1 [compound 234] |  |  | Test A disease control rating [1, 3]: 100%; Test B disease control rating [2, 4]: 92% |
| CC(C)OC(=O)c1cnn(Cc2ccc(OCC(O)(O)C(F)(F)F)cc2)c1 [compound 39] | 91 | 79 |  |
| CCO/C(=C\Oc1ccc(Cn2cc(C(=O)NCC3CC3)cn2)cc1)C(F)(F)F [compound 117] | 23 | 0 |  |
| CCO/C(=C\Oc1ccc(C#N)cc1)C(F)(F)F [compound 144] | 78 | 0 |  |
| CS(=O)(=O)c1ccc(OCC(O)(O)C(F)(F)F)cc1 [compound 31] | 44 | 93 |  |
| CCOC(=O)c1cnn(Cc2cc(O/C=C(\OCC)C(F)(F)F)ccc2C)c1 [compound 451] |  |  | Test A disease control rating [1, 7]: 0%; Test B disease control rating [2, 7]: 0% |
| C=CCOC(=O)c1cnn(Cc2ccc(OCC3(C(F)(F)F)OCCO3)cc2)c1 [compound 188] | 100 | 0 |  |
| CCO/C(=C\Oc1ccc(C(=O)NC2CC2)cc1)C(F)(F)F [compound 100] | 0 | 0 |  |
| CCOC(=O)c1cnn(CCc2cccc(O/C=C(\OCC)C(F)(F)F)c2)c1 [compound 345] |  |  | Test A disease control rating [1, 8]: 0%; Test B disease control rating [2, 8]: 0% |
| C=C(C)COC(=O)c1ccn(Cc2ccc(O/C=C(\OCC)C(F)(F)F)cc2)n1 [compound 358] |  |  | Test A disease control rating [1, 8]: 100%; Test B disease control rating [2, 8]: 0% |
| CCO/C(=C\Oc1cccc(Cn2cc(C(=O)OCC(C)=O)cn2)c1)C(F)(F)F [compound 337] |  |  | Test A disease control rating [1, 8]: 100%; Test B disease control rating [2, 8]: 0% |
| FC(F)(F)C1(COc2ccc(Cc3ccccc3)cc2)OCCO1 [compound 192] | 0 | 0 |  |
| C#CCNC(=O)c1ccc(O/C=C(\OCC)C(F)(F)F)cc1 [compound 102] | 0 | 0 |  |
| FC(F)(F)c1nc(-c2ccc(OCC3(C(F)(F)F)OCCO3)cc2)no1 [compound 173] | 0 | 0 |  |
| CCOC(=COc1ccc(CN2CCC(OC)CC2)cc1)C(F)(F)F [compound 312] |  |  | Test A disease control rating [1, 8]: 0%; Test B disease control rating [2, 8]: 0% |
| CCOC(=O)c1cnn(Cc2ccc(O/C=C(\OCC)C(F)(F)F)cc2)c1 [compound 298] |  |  | Test A disease control rating [1, 8]: 0%; Test B disease control rating [2, 8]: 0% |
| CCOC(=O)c1cnn(Cc2ccc(OCC3(C(F)(F)F)OCCCO3)cc2)c1 [compound 52] | 99 | 0 |  |
| O=C(NCC(F)F)c1cnc(Cc2ccc(OCC(O)(O)C(F)(F)F)cc2)s1 [compound 295] |  |  | Test A disease control rating [1, 7]: 99%; Test B disease control rating [2, 7]: 80% |
| O=C(OCc1ccccn1)c1cnn(Cc2ccc(OCC3(C(F)(F)F)OCCO3)cc2)c1 [compound 199] | 100 | 0 |  |
| O=C(OCc1ccc(F)c(F)c1)c1cnn(Cc2ccc(OCC3(C(F)(F)F)OCCO3)cc2)c1 [compound 18] | 100 | 0 |  |
| O=C(OCC1CCCC1)c1cnn(Cc2ccc(OCC3(C(F)(F)F)OCCO3)cc2)c1 [compound 284] |  |  | Test A disease control rating [1, 8]: 100%; Test B disease control rating [2, 8]: 0% |
| CCO/C(=C\Oc1cccc(Cc2nc(C(=O)NCC(F)(F)F)cs2)c1)C(F)(F)F [compound 377] |  |  | pest or weed control at 10 ppm ([1]; Phakopsora pachyrhizi, 10 ppm test suspension, 0 = no control): 44%; pest or weed control at 10 ppm ([2]; Puccinia recondita, 10 ppm test suspension, 0 = no control): 0% |
| CCCNC(=O)c1ccc(O/C=C(\OCC)C(F)(F)F)cc1 [compound 104] | 0 | 80 |  |
| CCOC(=O)c1cnn(Cc2ccc(OCC3(C(F)(F)F)NCCO3)cc2)c1 (stereo not drawn) [compound 21] | 84 | 23 |  |

| SMILES | Test A disease control rating [1, 5] [%] | Test B disease control rating [2, 6] [%] | also measured |
| --- | --- | --- | --- |
| C#CCOC(=O)c1cnn(Cc2ccc(OCC3(C(F)(F)F)OCCO3)cc2)c1 [compound 15] | 100 | 0 |  |
| CCOC(=COc1ccc(CN2CCC(C(=O)OC)CC2)cc1)C(F)(F)F [compound 309] |  |  | Test A disease control rating [1, 8]: 100%; Test B disease control rating [2, 8]: 0% |
| CCO/C(=C\Oc1ccc(Cn2cc(C(=O)OC)c3ccccc32)cc1)C(F)(F)F [compound 91] | 0 | 0 |  |
| CCOC(=O)c1ccc2c(cnn2Cc2ccc(OCC3(C(F)(F)F)OCCO3)cc2)c1 [compound 160] | 13 | 0 |  |
| CCOC(=O)NCc1ccc(OCC2(C(F)(F)F)OCCO2)cc1 [compound 78] | 94 | 0 |  |
| CCOC(=O)c1cnn(Cc2ccc(O/C=C(\OC)C(F)(F)F)cc2)c1 [compound 53] |  |  | Test A disease control rating [1, 3]: 100%; Test B disease control rating [2, 4]: 67% |
| CCO/C(=C\Oc1cccc(Cn2cc(C(=O)OCCC(C)C)cn2)c1)C(F)(F)F [compound 350] |  |  | Test A disease control rating [1, 8]: 100%; Test B disease control rating [2, 8]: 0% |
| CCOC(=O)C1CCCN(Cc2ccc(O/C=C(\OCC)C(F)(F)F)cc2)C1 (stereo not drawn) [compound 269] |  |  | Test A disease control rating [1, 8]: 100%; Test B disease control rating [2, 8]: 0% |
| O=C(NCC(F)(F)F)c1cnc(Cc2ccc(OCC3(C(F)(F)F)OCCO3)cc2)s1 [compound 275] |  |  | Test A disease control rating [1, 8]: 0%; Test B disease control rating [2, 8]: 0% |
| C[Si](C)(C)CCOc1nccc(Cc2ccc(OCC3(C(F)(F)F)OCCO3)cc2)n1 [compound 314] |  |  | Test A disease control rating [1, 7]: 0%; Test B disease control rating [2, 7]: 0% |
| CCCCOC(=O)c1ccn(Cc2ccc(O/C=C(\OCC)C(F)(F)F)cc2)n1 [compound 356] |  |  | Test A disease control rating [1, 8]: 100%; Test B disease control rating [2, 8]: 0% |
| CCOC(=O)Cc1nnnn1Cc1ccc(O/C=C(\OCC)C(F)(F)F)cc1 [compound 84] | 0 | 0 |  |
| CCO/C(=C\Oc1ccc(Cn2ncnc2C#N)cc1)C(F)(F)F [compound 81] | 0 | 0 |  |
| CCOC(=O)c1cnn(C(C)c2ccc(O/C=C(\OCC)C(F)(F)F)cc2)c1 (stereo not drawn) [compound 267] |  |  | Test A disease control rating [1, 8]: 94%; Test B disease control rating [2, 8]: 0% |
| O=C(OCc1ccccc1)c1cnn(Cc2ccc(OCC(O)(O)C(F)(F)F)cc2)c1 [compound 47] |  |  | Test A disease control rating [1, 3]: 100%; Test B disease control rating [2, 4]: 95% |
| CCOC(=COc1ccc(Cn2ccc(C)n2)cc1)C(F)(F)F [compound 158] | 0 | 0 |  |
| OCc1ccc(OCC2(C(F)(F)F)OCCO2)cc1 [compound 178] | 0 | 0 |  |
| CCOC(=O)c1cnn(Cc2ccc(O/C=C(\OCC#N)C(F)(F)F)cc2)c1 [compound 400] |  |  | Test A disease control rating [1, 7]: 100%; Test B disease control rating [2, 7]: 0% |
| O=C(OCC(=O)C1CCCCC1)c1cnn(Cc2ccc(OCC3(C(F)(F)F)OCCO3)cc2)c1 [compound 202] | 100 | 0 |  |
| CCO/C(=C\Oc1ccc(CN2CCCC2=O)cc1)C(F)(F)F [compound 224] | 0 | 0 |  |
| CCO/C(=C\Oc1cccc(Cn2cc(C(=O)OCC(F)F)cn2)c1)C(F)(F)F [compound 347] |  |  | Test A disease control rating [1, 7]: 100%; Test B disease control rating [2, 7]: 0% |
| CCOC(=O)c1cnn(COc2cccc(OCC3(C(F)(F)F)OCCO3)c2)c1 [compound 353] |  |  | pest or weed control at 50 ppm ([1]; Phakopsora pachyrhizi, 50 ppm test suspension, 0 = no control): 0%; pest or weed control at 50 ppm ([2]; Puccinia recondita, 50 ppm test suspension, 0 = no control): 0% |
| CCOC(=O)c1cnn(Cc2ccc(OCC(O)(NO)C(F)(F)F)cc2)c1 (stereo not drawn) [compound 10] | 100 | 86 |  |
| CCO/C(=C\Oc1ccc(CNC(=O)C(C)C)cc1)C(F)(F)F [compound 210] | 0 | 0 |  |
